Values of other authors, collected in patent US10590381B2, “Composition for collecting and preserving placental stem cells and methods of using the composition” (Celularity, Inc., priority 2005, dated 2020).

What was measured:
[1] = for hygroscopicity: solid polymorphic form; for conversion at higher relative humidities: stressed at higher relative humidities
[2] = Form A: among anhydrous polymorphs; Form E: in aqueous solvent systems
[3] = Form E: about 125° C. for about five minutes; Form B: 175° C. for about five minutes

Structure (SMILES) | hygroscopicity [1] | conversion upon heating [3] | relative stability among polymorphs [2] | conversion at higher relative humidities [1]
Nc1cccc2c1CN(C1CCC(=O)NC1=O)C2=O (centres unmarked) [Form A, 3-(4-amino-1-oxo-1,3 dihydro-isoindol-2-yl)-piperidene-2,6-dione] | weakly or not hygroscopic | – | most thermodynamically stable anhydrous polymorph | –
Nc1cccc2c1CN(C1CCC(=O)NC1=O)C2=O (centres unmarked) [Form B, 3-(4-amino-1-oxo-1,3 dihydro-isoindol-2-yl)-piperidene-2,6-dione] | – | can convert to Form F | – | –
Nc1cccc2c1CN(C1CCC(=O)NC1=O)C2=O (centres unmarked) [Form C, 3-(4-amino-1-oxo-1,3 dihydro-isoindol-2-yl)-piperidene-2,6-dione] | not hygroscopic below about 85% RH | – | – | can convert to Form B at higher relative humidities

Second part, led by results:

hygroscopicity [1] | conversion upon heating [3] | Structure (SMILES) | relative stability among polymorphs [2] | conversion at higher relative humidities [1]
either weakly or not hygroscopic | – | Nc1cccc2c1CN(C1CCC(=O)NC1=O)C2=O (centres unmarked) [Form D, 3-(4-amino-1-oxo-1,3 dihydro-isoindol-2-yl)-piperidene-2,6-dione] | – | will typically convert to Form B
– | can convert to Form B | Nc1cccc2c1CN(C1CCC(=O)NC1=O)C2=O (centres unmarked) [Form E, 3-(4-amino-1-oxo-1,3 dihydro-isoindol-2-yl)-piperidene-2,6-dione] | – | –
